Molecular target: Sodium-dependent serotonin transporter (Homo sapiens, UniProt P31645)
Test: SERT Inhibition Assay
Experimental: SERT inhibition was measured using a Neruotransmitter Transportation Fluorescence assay. […] Compounds were prepared by in assay buffer (20 mM HEPES, 0.1% BSA). The compounds were added to the plated cells and incubated for 30 minutes at 37° C. 25 μL of dye solution (Molecular Devices Neurotransmitter Transporter Uptake Assay Kit) was added per well and incubated for 30 minutes at 37° C. The plates were then read on a plate reader.

Chain of Sodium-dependent serotonin transporter (P31645 whole entry): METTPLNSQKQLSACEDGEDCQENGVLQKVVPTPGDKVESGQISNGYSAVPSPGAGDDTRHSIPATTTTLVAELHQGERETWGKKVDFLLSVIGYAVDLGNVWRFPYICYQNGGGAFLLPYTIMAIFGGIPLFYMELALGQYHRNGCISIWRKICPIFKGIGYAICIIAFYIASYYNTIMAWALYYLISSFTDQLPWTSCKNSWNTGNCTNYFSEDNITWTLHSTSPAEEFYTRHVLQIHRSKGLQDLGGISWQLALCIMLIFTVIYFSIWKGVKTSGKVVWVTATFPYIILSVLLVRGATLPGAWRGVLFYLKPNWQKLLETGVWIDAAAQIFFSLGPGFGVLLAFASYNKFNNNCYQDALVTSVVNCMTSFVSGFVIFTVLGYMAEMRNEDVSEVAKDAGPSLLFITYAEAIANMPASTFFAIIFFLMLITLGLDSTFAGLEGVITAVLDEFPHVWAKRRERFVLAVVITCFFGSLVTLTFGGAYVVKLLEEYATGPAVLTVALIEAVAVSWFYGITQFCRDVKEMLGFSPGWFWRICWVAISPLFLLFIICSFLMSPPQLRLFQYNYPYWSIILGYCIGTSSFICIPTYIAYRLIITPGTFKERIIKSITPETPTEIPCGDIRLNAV

Question: For COc1ccc([C@]23CCN(C)[C@H]2[C@H]2CCC[C@@H]3CC2=O)cc1OC [US20250059156, Compound 220], which IC50 is on record?
Answer: 100 to 500 nM

Question: How did the IC50 turn out when COc1ccc([C@@]23CCN(C)[C@@H]2[C@@H]2CCC[C@H]3CC2=O)cc1OC [US20250059156, Compound 221] was run?
Answer: < 50 nM

Reference: BindingDB's records for patent US20250059156 (Sensorium Therapeutics, 2025)
